These results are taken from patent publication US7713994B2 (Wyeth LLC, priority 2005, dated 2010).

Molecules are shown by their SMILES. Like-named read-outs stand apart in the source and are kept apart here.

Assay [1] addresses T1, cyclin D1/cdk 4 enzyme (Homo sapiens, UniProt P11802).
T1 construct: made in house; host or cells: Sf9 insect cells, recombinant baculovirus
Put plainly: CDK4 ELISA kinase assay (phospho-Rb ser 795 detection). It is filed as biochemical. Conditions: In Vitro Enzyme Assays, 200 μM ATP, read-out: CDK4 IC50. In outline:
(§1)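 GST-Rb C-terminal fragment coated on plates; partially purified Sf9-expressed cyclin D1/CDK4, cyclin E/CDK2 or cyclin B/CDK1 with 200 μM ATP, pH 7.5 HEPES/MgCl2 buffer, 1 h at 30 °C; screen compound final 10 μg/ml. Phospho-Rb Ser795 detected by antibody ELISA (TMB, A450); % of control, IC50 from background-subtracted inhibition curves.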
For orientation: In an ELISA, binding on a coated surface is turned into a signal by an enzyme label.

Assay [2] has as its target T2, cyclin E/CDK2 enzyme (Homo sapiens, UniProt P24941).
T2 construct: made in house; host or cells: Sf9 insect cells, recombinant baculovirus
The assay is described as follows: CDK2 ELISA kinase assay (phospho-Rb ser 795 detection). It is filed as biochemical. Conditions: In Vitro Enzyme Assays, read-out: CDK2 IC50. Put shortly:
as §1

Assay [3] deals with T3, cyclin B/CDK1 enzyme (Homo sapiens, UniProt P06493).
T3 construct: purchased New England BioLabs; host or cells: Sf9 insect cells, recombinant baculovirus
Put plainly: CDK1 ELISA kinase assay (phospho-Rb ser 795 detection). Format: biochemical. Conditions: In Vitro Enzyme Assays, read-out: CDK1 IC50. Put shortly:
as §1

Assay [4] relates to BT474. Put plainly: Cytotoxicity assay (SRB), BT474. The note with it: BT474 cells, SRB, 6 days, read-out: In Vitro Cellular Activity IC50 BT474. It is filed as cell-based. In outline:
(§2)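 Protein staining with sulforhodamine B after cold TCA fixation served as the survival endpoint (A540, relative to untreated cells). Before staining, cells were incubated with compound at 37 °C, 7% CO2 for 3 days, or 6 days for BT474.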

The test system of assay [5] is HCT-116. The assay is described as follows: Cytotoxicity assay (SRB), HCT-116. Conditions: HCT116 cells, SRB, three days, read-out: In Vitro Cellular Activity IC50 HCT116. Format: cell-based. Put shortly: as §2
Assay [6] relates to LoVo. Put plainly: Cytotoxicity assay (SRB), LoVo. Conditions: LoVo cells, SRB, three days, read-out: In Vitro Cellular Activity IC50 LOVO. Format: cell-based. Put shortly:
as §2

Assay [7] has as its system MCF-7. The assay is described as follows: Cytotoxicity assay (SRB), MCF-7. It is filed as cell-based. Conditions: MCF-7 cells, SRB, three days, read-out: In Vitro Cellular Activity IC50 MCF-7. Put shortly:
as §2

T1 sequence (P11802 whole entry, species assumed): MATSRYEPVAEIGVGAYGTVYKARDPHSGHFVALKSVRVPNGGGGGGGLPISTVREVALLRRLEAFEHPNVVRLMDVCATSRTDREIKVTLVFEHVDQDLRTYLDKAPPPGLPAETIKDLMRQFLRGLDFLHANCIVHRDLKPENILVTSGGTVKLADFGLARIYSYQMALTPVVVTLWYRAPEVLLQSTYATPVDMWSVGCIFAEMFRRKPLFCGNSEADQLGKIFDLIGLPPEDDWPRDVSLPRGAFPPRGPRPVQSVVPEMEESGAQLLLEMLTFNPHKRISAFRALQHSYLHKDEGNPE
T1 sequence (P24385 whole entry partner, species assumed): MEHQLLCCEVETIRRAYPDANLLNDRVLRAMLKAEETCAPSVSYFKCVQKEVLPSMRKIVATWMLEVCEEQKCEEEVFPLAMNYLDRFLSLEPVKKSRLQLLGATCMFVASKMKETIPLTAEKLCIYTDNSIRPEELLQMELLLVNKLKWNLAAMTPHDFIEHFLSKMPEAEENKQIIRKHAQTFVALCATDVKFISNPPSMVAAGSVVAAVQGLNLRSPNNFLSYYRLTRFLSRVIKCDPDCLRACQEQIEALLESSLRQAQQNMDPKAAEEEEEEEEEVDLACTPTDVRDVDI
T3 sequence (P06493 whole entry): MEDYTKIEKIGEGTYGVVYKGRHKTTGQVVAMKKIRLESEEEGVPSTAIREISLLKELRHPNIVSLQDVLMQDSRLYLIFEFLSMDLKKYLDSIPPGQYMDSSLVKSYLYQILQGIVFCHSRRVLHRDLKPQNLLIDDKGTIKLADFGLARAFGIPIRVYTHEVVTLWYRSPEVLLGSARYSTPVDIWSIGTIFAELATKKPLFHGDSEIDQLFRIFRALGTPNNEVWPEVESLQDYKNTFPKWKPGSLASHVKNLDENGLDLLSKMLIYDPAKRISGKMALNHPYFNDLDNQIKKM
T3 sequence (P14635 whole entry partner): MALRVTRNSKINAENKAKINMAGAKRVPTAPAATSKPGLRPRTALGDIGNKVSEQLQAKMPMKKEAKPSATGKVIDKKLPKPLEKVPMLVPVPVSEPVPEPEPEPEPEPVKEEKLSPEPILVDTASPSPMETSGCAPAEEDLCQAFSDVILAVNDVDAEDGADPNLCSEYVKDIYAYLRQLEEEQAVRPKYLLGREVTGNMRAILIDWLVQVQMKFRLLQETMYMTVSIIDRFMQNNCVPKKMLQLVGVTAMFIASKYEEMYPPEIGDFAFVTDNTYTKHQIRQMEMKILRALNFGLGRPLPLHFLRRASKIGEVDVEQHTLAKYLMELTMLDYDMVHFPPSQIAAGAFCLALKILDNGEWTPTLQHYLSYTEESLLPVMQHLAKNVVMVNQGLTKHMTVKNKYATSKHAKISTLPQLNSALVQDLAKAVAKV

What is called IC50 is the point on the concentration scale where inhibition reaches its midpoint. With `COc1ccc(C(C)N/C=C2\C(=O)NC(=O)c3ccc(Br)cc32)cc1O` (stereo not shown) [Example 189, (4Z)-6-Bromo-4-({[1-(3-hydroxy-4-methoxyphenyl)ethyl]amino}methylene)isoquinoline-1,3(2H,4H)-dione], the IC50 in assay [1] is 0.37 µM; in assay [2], > 50 µM; in assay [3], > 50 µM; in assay [4] (Homo sapiens, BT-474, 144 h) it was 5.8 µM; in assay [5] (Homo sapiens, HCT-116, 72 h), 7.2 µM; in assay [6] (Homo sapiens, LoVo, 72 h) it was 6.4 µM. The half-maximal inhibitory concentration (IC50) in assay [7] (Homo sapiens, MCF7, 72 h) stood at 9.9 µM.
As for `CCCOc1ccc(CN/C=C2\C(=O)NC(=O)c3ccc(-c4cccc(F)c4)cc32)cc1O` [Example 193, (4Z)-6-(3-Fluorophenyl)-4-{[(3-hydroxy-4-propoxybenzyl)amino]methylene}-isoquinoline-1,3(2H,4H)-dione], the half-inhibitory concentration (IC50) in assay [1] is 1.4 µM; in assay [2] it was > 50 µM; in assay [3], > 50 µM; in assay [4] (Homo sapiens, BT-474, 144 h), > 50 µM; in assay [5] (Homo sapiens, HCT-116, 72 h), 16 µM; in assay [6] (Homo sapiens, LoVo, 72 h), > 50 µM. Also, the half-inhibitory concentration (IC50) in assay [7] (Homo sapiens, MCF7, 72 h) was 4.4 µM.
Regarding `CCCOc1ccc(CN/C=C2\C(=O)NC(=O)c3ccc(-c4ccc(F)c(F)c4)cc32)cc1O` [Example 194, (4Z)-6-(3,4-Difluorophenyl)-4-{[(3-hydroxy-4-propoxybenzyl)amino]methylene}-isoquinoline-1,3(2H,4H)-dione], the IC50 in assay [1] is 15.8 µM; in assay [2] it was > 50 µM; in assay [3] it was > 50 µM; in assay [4] (Homo sapiens, BT-474, 144 h), > 50 µM; in assay [5] (Homo sapiens, HCT-116, 72 h), > 50 µM; in assay [6] (Homo sapiens, LoVo, 72 h), > 50 µM. Moreover, the 50% inhibitory concentration (IC50) in assay [7] (Homo sapiens, MCF7, 72 h) came to 9.1 µM.
`CCCOc1cc(O)cc(CN/C=C2\C(=O)NC(=O)c3ccc(Br)cc32)c1` [Example 195]: the half-inhibitory concentration (IC50) is 2 µM in assay [1]; > 50 µM in assay [2]; > 50 µM in assay [3]; 17 µM in assay [4] (Homo sapiens, BT-474, 144 h); 6.9 µM in assay [5] (Homo sapiens, HCT-116, 72 h); 37 µM in assay [6] (Homo sapiens, LoVo, 72 h). Besides, the IC50 in assay [7] (Homo sapiens, MCF7, 72 h) is 14 µM.
`CN1CCN(c2ccc(N/C=C3\C(=O)NC(=O)c4ccc(NC(=O)Cc5cccs5)cc43)cc2)CC1` [Example 198, 1,2,3,4-Tetrahydroisoquinolin-6-yl]-2-thien-2-ylacetamide ′N-[(4Z)-4-({[4-(4-methylpiperazin-1-yl)phenyl]amino}methylene)-1,3-dioxo]: the IC50 in assay [1] worked out at 3.1 µM; in assay [2], 22.1 µM; in assay [3], 12 µM; in assay [4] it was 4.3 µM; in assay [5] it was 1.8 µM; in assay [6], 3.7 µM. In addition, the half-maximal inhibitory concentration (IC50) in assay [7] was 4.3 µM.
On to `O=C1NC(=O)c2ccc(-c3ccsc3)cc2/C1=C/NCc1ccc(OC(F)F)c(O)c1` [Example 200, (4Z)-4-({[4-(Difluoromethoxy)-3-hydroxybenzyl]amino}methylene)-6-thien-3-ylisoquinoline-1,3(2H,4H)-dione], for which the IC50 in assay [1] is 0.009 µM; in assay [2] it was 26.5 µM; in assay [3], > 50 µM; in assay [4] (Homo sapiens, BT-474, 144 h), 9.3 µM; in assay [5] (Homo sapiens, HCT-116, 72 h), 5.4 µM; in assay [6] (Homo sapiens, LoVo, 72 h) it was 4.7 µM. In addition, in assay [7] (Homo sapiens, MCF7, 72 h), the concentration for half-maximal inhibition (IC50) worked out at 7.2 µM.
Take `COc1ccc(C(=O)NN/C=C2\C(=O)NC(=O)c3ccc(Br)cc32)cc1O` [Example 202, N′-[(Z)-(6-Bromo-1,3-dioxo-2,3-dihydroisoquinolin-4(1H)-ylidene)methyl]-3-hydroxy-4-methoxybenzohydrazide]: the IC50 was 33.2 µM in assay [1]; > 50 µM in assay [2]; > 50 µM in assay [3]; 18 µM in assay [4] (Homo sapiens, BT-474, 144 h); > 50 µM in assay [5] (Homo sapiens, HCT-116, 72 h); > 50 µM in assay [6] (Homo sapiens, LoVo, 72 h). Further, the 50% inhibitory concentration (IC50) in assay [7] (Homo sapiens, MCF7, 72 h) is > 50 µM.
As for `C[C@@H]1CN(c2ccc(N/C=C3\C(=O)NC(=O)c4ccc(-c5ccc(F)cc5)cc43)cc2)C[C@H](C)N1` [Example 205, (4Z)-4-({[4-(3,5-Dimethylpiperazin-1-yl)phenyl]amino}methylene)-6-(4-fluorophenyl)-isoquinoline-1,3(2H,4H)-dione], the IC50 in assay [1] worked out at 0.44 µM; in assay [2] it was 48.6 µM; in assay [3], 31 µM; in assay [4] (Homo sapiens, BT-474, 144 h), 2.4 µM; in assay [5] (Homo sapiens, HCT-116, 72 h), 1.1 µM; in assay [6] (Homo sapiens, LoVo, 72 h), 3.1 µM. In addition, the IC50 in assay [7] (Homo sapiens, MCF7, 72 h) was determined as 1.5 µM.
Consider `C[C@@H]1CN(c2ccc(N/C=C3\C(=O)NC(=O)c4ccc(-c5ccsc5)cc43)cc2)C[C@H](C)N1` [Example 206, (4Z)-4-({[4-(3,5-Dimethylpiperazin-1-yl)phenyl]amino}methylene)-6-thien-3-ylisoquinoline-1,3(2H,4H)-dione], for which the IC50 is 0.16 µM in assay [1]; > 50 µM in assay [2]; 41.9 µM in assay [3]; 2.9 µM in assay [4] (Homo sapiens, BT-474, 144 h); 1.6 µM in assay [5] (Homo sapiens, HCT-116, 72 h); 7.4 µM in assay [6] (Homo sapiens, LoVo, 72 h). In assay [7] (Homo sapiens, MCF7, 72 h), the 50% inhibitory concentration (IC50) is 3.7 µM.
For the compound `C[C@@H]1CN(c2ccc(N/C=C3\C(=O)NC(=O)c4ccc(-c5ccoc5)cc43)cc2)C[C@H](C)N1` [Example 207, (4Z)-4-({[4-(3,5-Dimethylpiperazin-1-yl)phenyl]amino}methylene)-6-(3-furyl)iso-quinoline-1,3(2H,4H)-dione], the IC50 in assay [1] was 0.2 µM; in assay [2], > 50 µM; in assay [3] it was > 50 µM; in assay [4] (Homo sapiens, BT-474, 144 h), 0.79 µM; in assay [5] (Homo sapiens, HCT-116, 72 h) it was 1.1 µM; in assay [6] (Homo sapiens, LoVo, 72 h) it was 2.2 µM. In assay [7] (Homo sapiens, MCF7, 72 h), the concentration for half-maximal inhibition (IC50) worked out at 0.69 µM.
For the compound `COc1ccc(CN/C=C2\C(=O)NC(=O)c3ccc(-c4ccc(F)cc4)cc32)cc1O` [Example 208, (4Z)-6-(4-Fluorophenyl)-4-{[(3-hydroxy-4-methoxybenzyl)amino]methylene}iso-quinoline-1,3(2H,4H)-dione], the IC50 is 0.009 µM in assay [1]; 30.3 µM in assay [2]; > 50 µM in assay [3]; 8.2 µM in assay [4] (Homo sapiens, BT-474, 144 h); 5.7 µM in assay [5] (Homo sapiens, HCT-116, 72 h); 15 µM in assay [6] (Homo sapiens, LoVo, 72 h). For the same compound, the half-inhibitory concentration (IC50) in assay [7] (Homo sapiens, MCF7, 72 h) is 3.4 µM.
For `COc1ccc(CN/C=C2\C(=O)NC(=O)c3ccc(-c4cccc(F)c4)cc32)cc1O` [Example 209, (4Z)-6-(3-Fluorophenyl)-4-{[(3-hydroxy-4-methoxybenzyl)amino]methylene}iso-quinoline-1,3(2H,4H)-dione], the 50% inhibitory concentration (IC50) in assay [1] is 0.01 µM; in assay [2] it was 9.2 µM; in assay [3], > 50 µM; in assay [4] (Homo sapiens, BT-474, 144 h), 9.4 µM; in assay [5] (Homo sapiens, HCT-116, 72 h), 7 µM; in assay [6] (Homo sapiens, LoVo, 72 h), 15 µM. Further, the IC50 in assay [7] (Homo sapiens, MCF7, 72 h) turned out to be 5.4 µM.
On to `COc1c(O)cc(CN/C=C2\C(=O)NC(=O)c3ccc(Br)cc32)cc1O` [Example 210, (4Z)-6-Bromo-4-{[(3,5-dihydroxy-4-methoxybenzyl)amino]methylene}isoquinoline-1,3(2H,4H)-dione], for which the half-maximal inhibitory concentration (IC50) in assay [1] is 0.008 µM; in assay [2] it was 2.1 µM; in assay [3] it was 18.9 µM; in assay [4] (Homo sapiens, BT-474, 144 h), 13 µM; in assay [5] (Homo sapiens, HCT-116, 72 h) it was 10 µM; in assay [6] (Homo sapiens, LoVo, 72 h), 10 µM. The half-maximal inhibitory concentration (IC50) in assay [7] (Homo sapiens, MCF7, 72 h) was found to be 6.6 µM.
As for `O=C1NC(=O)c2ccc(Br)cc2/C1=C/NCCCCO` [Example 211, (4Z)-6-Bromo-4-{[(4-hydroxybutyl)amino]methylene}isoquinoline-1,3(2H,4H)-dione], the IC50 in assay [1] stood at 2.5 µM; in assay [2], 20.2 µM; in assay [3] it was 38 µM; in assay [4] (Homo sapiens, BT-474, 144 h), 29 µM; in assay [5] (Homo sapiens, HCT-116, 72 h) it was 27 µM; in assay [6] (Homo sapiens, LoVo, 72 h), 48 µM. Moreover, in assay [7] (Homo sapiens, MCF7, 72 h), the half-maximal inhibitory concentration (IC50) was 24 µM.
Take `CCCOc1cc(CN/C=C2\C(=O)NC(=O)c3ccc(Br)cc32)cc(O)c1OCCC` [Example 212, (4Z)-6-Bromo-4-{[(3-hydroxy-4,5-dipropoxybenzyl)amino]methylene}isoquinoline-1,3(2H,4H)-dione]: the IC50 is 0.77 µM in assay [1]; > 50 µM in assay [2]; > 50 µM in assay [3]; 47 µM in assay [4] (Homo sapiens, BT-474, 144 h); 25 µM in assay [5] (Homo sapiens, HCT-116, 72 h); 30 µM in assay [6] (Homo sapiens, LoVo, 72 h). Moreover, in assay [7] (Homo sapiens, MCF7, 72 h), the IC50 worked out at 37 µM.
Turning to `CC(=O)Nc1cc(CN/C=C2\C(=O)NC(=O)c3ccc(Br)cc32)cc(O)c1O` [Example 213], the half-maximal inhibitory concentration (IC50) was 0.19 µM in assay [1]; > 50 µM in assay [2]; > 50 µM in assay [3]; > 50 µM in assay [4] (Homo sapiens, BT-474, 144 h); > 50 µM in assay [5] (Homo sapiens, HCT-116, 72 h); 48 µM in assay [6] (Homo sapiens, LoVo, 72 h). Moreover, the half-maximal inhibitory concentration (IC50) in assay [7] (Homo sapiens, MCF7, 72 h) was > 50 µM.
